PubChem BioAssay AID1963865 (Molecular Pharmacology Branch, DTP, NCI, 2024)

Tested on: KRAS PDC multicell spheroid viability
Test: Anticancer human tumor 825966-067-R-J1-PDC patient-derived colon carcinoma cell line growth inhibition [KRAS2]
Settings: for IC50: curve of first compound; for viability, T/C: stronger effect = lower value
How it was run: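 Combination screen of spheroid viability in tumor-cell co-cultures with endothelial (HUVEC) and mesenchymal stem cell stroma. Each agent was tested in half-log dilutions, topping at clinical Cmax or at 10 microM without a known Cmax.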

[1] = second compound 0.1 µM, first compound 0.0316 µM
[2] = second compound 0.1 µM, first compound 0.1 µM
[3] = second compound 0.1 µM, first compound 0.316 µM
[4] = second compound 0.1 µM, first compound 1 µM
[5] = second compound 0.1 µM, first compound 3.16 µM
[6] = second compound 0.316 µM, first compound 0.0316 µM
[7] = second compound 0.316 µM, first compound 0.1 µM
[8] = second compound 0.316 µM, first compound 0.316 µM
[9] = second compound 0.316 µM, first compound 1 µM
[10] = second compound 0.316 µM, first compound 3.16 µM
[11] = second compound 1 µM, first compound 0.0316 µM
[12] = second compound 1 µM, first compound 0.1 µM
[13] = second compound 1 µM, first compound 0.316 µM
[14] = second compound 1 µM, first compound 1 µM
[15] = second compound 1 µM, first compound 3.16 µM
[16] = second compound 3.16 µM, first compound 0.0316 µM
[17] = second compound 3.16 µM, first compound 0.1 µM
[18] = second compound 3.16 µM, first compound 0.316 µM
[19] = second compound 3.16 µM, first compound 1 µM
[20] = second compound 3.16 µM, first compound 3.16 µM
[21] = second compound 10 µM, first compound 0.0316 µM
[22] = second compound 10 µM, first compound 0.1 µM
[23] = second compound 10 µM, first compound 0.316 µM
[24] = second compound 10 µM, first compound 1 µM
[25] = second compound 10 µM, first compound 3.16 µM
[26] = second compound 0.1 µM, first compound 0.01 µM
[27] = second compound 0.316 µM, first compound 0.01 µM
[28] = second compound 1 µM, first compound 0.01 µM
[29] = second compound 3.16 µM, first compound 0.01 µM
[30] = second compound 10 µM, first compound 0.01 µM
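Also: spheroids exposed to compounds for 7 days.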
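For viability, T/C in this document: 100% = DMSO vehicle control viability.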

`Cn1nccc1Nc1nccc(-c2cc3c(s2)C(C)(C)N(CCN2CCOCC2)C3=O)n1` + CC1OCC2(CCN(c3cnc(Sc4ccnc(N)c4Cl)c(N)n3)CC2)C1N was tested, and the IC50 (second compound 0.1 µM) was > 10000 nM, the IC50 (second compound 0.316 µM) was > 10000 nM and the IC50 (second compound 1 µM) was > 10000 nM. The IC50 (second compound 3.16 µM) was > 10000 nM, the IC50 (second compound 10 µM) was 85 nM and the viability, T/C [1] was 125%. It also gave a viability, T/C [2] of 97.3%, a viability, T/C [3] of 128% and a viability, T/C [4] of 95.8%. For the same molecule, the viability, T/C [5] was 104%, the viability, T/C (second compound 0.1 µM, first compound 10 µM) was 68.5% and the viability, T/C [6] was 88.8%. For the same molecule, the viability, T/C [7] was 124%, the viability, T/C [8] was 131% and the viability, T/C [9] was 104%. The viability, T/C [10] was 87.4%, the viability, T/C (second compound 0.316 µM, first compound 10 µM) was 77.3% and the viability, T/C [11] was 93%. The viability, T/C [12] was 115%, the viability, T/C [13] was 106% and the viability, T/C [14] was 81.9%. It also gave a viability, T/C [15] of 89.2%, a viability, T/C (second compound 1 µM, first compound 10 µM) of 63.3% and a viability, T/C [16] of 107%. It also gave a viability, T/C [17] of 130%, a viability, T/C [18] of 92.3% and a viability, T/C [19] of 56.6%. The viability, T/C [20] was 59%, the viability, T/C (second compound 3.16 µM, first compound 10 µM) was 77% and the viability, T/C [21] was 80.4%. It also gave a viability, T/C [22] of 45%, a viability, T/C [23] of 14.4% and a viability, T/C [24] of 6.71%. For the same molecule, the viability, T/C [25] was 12.1% and the viability, T/C (second compound 10 µM, first compound 10 µM) was 43.9%.

Molecule `CC(=O)Nc1cccc(-n2c(=O)n(C3CC3)c(=O)c3c(Nc4ccc(I)cc4F)n(C)c(=O)c(C)c32)c1` + CNCc1ccccc1-c1csc(C(C)Nc2nc(C)nc3cc(OC)c(OC)cc23)c1 has an IC50 (second compound 0.1 µM) of 23.9 nM, an IC50 (second compound 0.316 µM) of 27.5 nM and an IC50 (second compound 1 µM) of 17.1 nM. The IC50 (second compound 3.16 µM) was < 0.1 nM, the IC50 (second compound 10 µM) was < 0.1 nM and the viability, T/C (second compound 0.1 µM, first compound 0.0001 µM) was 89.5%. It also gave a viability, T/C (second compound 0.1 µM, first compound 0.000316 µM) of 107%, a viability, T/C (second compound 0.1 µM, first compound 0.001 µM) of 108% and a viability, T/C (second compound 0.1 µM, first compound 0.00316 µM) of 107%. For the same molecule, the viability, T/C [26] was 92.9%, the viability, T/C [1] was 35.7% and the viability, T/C (second compound 0.316 µM, first compound 0.0001 µM) was 88.3%. For the same molecule, the viability, T/C (second compound 0.316 µM, first compound 0.000316 µM) was 97.9%, the viability, T/C (second compound 0.316 µM, first compound 0.001 µM) was 105% and the viability, T/C (second compound 0.316 µM, first compound 0.00316 µM) was 108%. The viability, T/C [27] was 106%, the viability, T/C [6] was 42.9% and the viability, T/C (second compound 1 µM, first compound 0.0001 µM) was 96.1%. The viability, T/C (second compound 1 µM, first compound 0.000316 µM) was 98.2%, the viability, T/C (second compound 1 µM, first compound 0.001 µM) was 112% and the viability, T/C (second compound 1 µM, first compound 0.00316 µM) was 92.2%. It also gave a viability, T/C [28] of 78.5%, a viability, T/C [11] of 18.1% and a viability, T/C (second compound 3.16 µM, first compound 0.0001 µM) of 28.4%. For the same molecule, the viability, T/C (second compound 3.16 µM, first compound 0.000316 µM) was 51.9%, the viability, T/C (second compound 3.16 µM, first compound 0.001 µM) was 16.4% and the viability, T/C (second compound 3.16 µM, first compound 0.00316 µM) was 0.36%. For the same molecule, the viability, T/C [29] was 0.15%, the viability, T/C [16] was 0.26% and the viability, T/C (second compound 10 µM, first compound 0.0001 µM) was 0.16%. It also gave a viability, T/C (second compound 10 µM, first compound 0.000316 µM) of 0.14%, a viability, T/C (second compound 10 µM, first compound 0.001 µM) of 0.13% and a viability, T/C (second compound 10 µM, first compound 0.00316 µM) of 0.11%. It also gave a viability, T/C [30] of 0.12% and a viability, T/C [21] of 0.17%.

For `CC(=O)OC12COC1CC(O)C1(C)C(=O)C(O)C3=C(C)C(OC(=O)C(O)C(NC(=O)OC(C)(C)C)c4ccccc4)CC(O)(C(OC(=O)c4ccccc4)C21)C3(C)C` (stereo not given) + CNCc1ccccc1-c1csc(C(C)Nc2nc(C)nc3cc(OC)c(OC)cc23)c1, the IC50 (second compound 0.1 µM) was < 10 nM, the IC50 (second compound 0.316 µM) was < 10 nM and the IC50 (second compound 1 µM) was < 10 nM. For the same molecule, the IC50 (second compound 3.16 µM) was < 10 nM, the IC50 (second compound 10 µM) was < 10 nM and the viability, T/C [26] was 21.7%. The viability, T/C [1] was 14.4%, the viability, T/C [2] was 17.6% and the viability, T/C [3] was 15.7%. The viability, T/C [4] was 18.1%, the viability, T/C [5] was 23.4% and the viability, T/C [27] was 17.2%. For the same molecule, the viability, T/C [6] was 10.2%, the viability, T/C [7] was 11.7% and the viability, T/C [8] was 11.5%. It also gave a viability, T/C [9] of 14.3%, a viability, T/C [10] of 18.6% and a viability, T/C [28] of 12.6%. The viability, T/C [11] was 17.5%, the viability, T/C [12] was 11.6% and the viability, T/C [13] was 13%. It also gave a viability, T/C [14] of 15.5%, a viability, T/C [15] of 16.2% and a viability, T/C [29] of 0.14%. The viability, T/C [16] was 15.2%, the viability, T/C [17] was 1.18% and the viability, T/C [18] was 0.07%. It also gave a viability, T/C [19] of 0.57%, a viability, T/C [20] of 24.8% and a viability, T/C [30] of 2.23%. The viability, T/C [21] was 1.24%, the viability, T/C [22] was 0.96% and the viability, T/C [23] was 0.12%. The viability, T/C [24] was 0.12% and the viability, T/C [25] was 0.18%.
